Data reported in publication PMC4089482, “Bacterial periplasmic sialic acid-binding proteins exhibit a conserved binding site” (Acta Crystallographica Section D: Biological Crystallography, 2014).
Entries after “also recorded” stand apart in the source; their conditions may differ. Read-outs that look alike come from different tables or passages of the source.

Tests used:
[1] = test system: V. cholerae O1 biovar eltor strain N16961; experiment: Growth-curve experiment in M9 minimal medium with different sugars; format: cell-based, Vibrio cholerae; conditions: M9 minimal medium supplemented with sugar (5 mg ml^−1; all at 5 mM), 37°C
Description: V. cholerae O1 biovar eltor strain N16961 was initially grown on LB agar plates. Subsequently, 3 ml M9 minimal medium supplemented with different sugars (5 mg ml^−1) was inoculated with bacteria at an OD600 of 0.07. These cultures were incubated in a 37°C shaker at 225 rev min^−1. Optical densities at A 600 were measured at various time points using a Spectronic GENESYS 20 Visible Spectrophotometer to observe the growth pattern of V. cholerae in different compounds. The different sugars used were Neu5Ac, Neu5Gc, fetuin (a glycoprotein of foetal serum that contains different sugars and sialic acid; Spiro, 1960[▶]), asialofetuin, galactose, glycerol, D-lactic acid, succinate, sucrose, DL-malic acid and fructose, all at 5 mM concentration. Based on the readings, a graph of OD600 was plotted.

Vc-SiaP = target: T1, Vc-SiaP (Vibrio cholerae serotype O1, UniProt Q9KR64); experiment: ITC binding of sialic acids to Vc-SiaP; conditions: 25°C; for H (change in enthalpy, ΔH) / Kd / T S (entropic component): 20 mM HEPES pH 8.0, 10 mM NaCl
T1 construct: PCR-amplified using the forward primer 5′-[…]-3′; made in house; host or cells: Escherichia coli BL21 (DE3)
T1 sequence (Q9KR64 23-321): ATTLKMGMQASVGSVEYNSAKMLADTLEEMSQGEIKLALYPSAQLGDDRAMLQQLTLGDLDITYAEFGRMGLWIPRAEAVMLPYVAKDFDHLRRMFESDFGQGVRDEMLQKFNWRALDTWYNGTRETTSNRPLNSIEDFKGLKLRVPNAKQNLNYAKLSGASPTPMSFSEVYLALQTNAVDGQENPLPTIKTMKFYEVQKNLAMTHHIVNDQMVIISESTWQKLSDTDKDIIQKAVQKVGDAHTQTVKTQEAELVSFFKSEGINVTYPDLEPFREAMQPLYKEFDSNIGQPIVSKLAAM
Description: (§1) ITC measurements were performed using a MicroCal ITC system (GE Healthcare). The reaction buffer for all of the experiments was 20 mM HEPES pH 8.0, 10 mM NaCl. All titrations were carried out at 25°C. The protein concentration was determined using the Bio-Rad Bradford reagent. The concentrations of SiaP and Neu5Ac/Neu5Gc were varied in the different titrations and each binding experiment was repeated three times. The nonspecific heat released by the dilution of both the sugars and the protein was calculated by averaging the heat liberated during the last 3–5 injections after saturation. This value was then subtracted from the raw heat released during each injection. To derive the stoichiometric values, the data sets were analyzed using a single-site binding model from the Origin ITC analysis software (MicroCal). In this analysis, the values for the stoichiometry, the change in enthalpy (ΔH) and the affinity were fitted using nonlinear least-squares analysis. To derive the values for the affinity, ΔS and ΔH, data sets were globally analyzed using the single-site binding model in SEDPHAT (Vistica et al., 2004[▶]; Dam & Schuck, 2005[▶]).

Fn-SiaP = Fn-SiaP (Fusobacterium nucleatum subsp. nucleatum, UniProt Q8RDN9); experiment: ITC binding of sialic acids to Fn-SiaP; conditions: 25°C; for H (change in enthalpy, ΔH) / Kd / T S (entropic component): 20 mM HEPES pH 8.0, 10 mM NaCl
Description: as §1

Pm-SiaP = Pm-SiaP (Pasteurella multocida, UniProt Q9CKB5); experiment: ITC binding of sialic acids to Pm-SiaP
Description: as §1

Hi-SiaP E67A mutant = target: T2, Hi-SiaP E67A mutant (Haemophilus influenzae, UniProt P44542, E90A); experiment: ITC binding of Neu5Ac to Hi-SiaP E67A
T2 construct: made in house
Description: as §1

Hi-SiaP H209A mutant = target: T3, Hi-SiaP H209A mutant (Haemophilus influenzae, UniProt P44542, H232A); experiment: ITC binding of Neu5Ac to Hi-SiaP H209A; conditions: 25°C
T3 construct: made in house
Description: as §1

Hi-SiaP wild type [2] = target: T4, Hi-SiaP wild type (Haemophilus influenzae, UniProt P44542); experiment: ITC binding of Neu5Ac to wild-type Hi-SiaP
T4 construct: made in house
Description: as §1

Hi-SiaP T64K mutant = target: T5, Hi-SiaP T64K mutant (Haemophilus influenzae, UniProt P44542, T87K); experiment: ITC binding of Neu5Ac to Hi-SiaP T64K
T5 construct: made in house
Description: as §1

Hi-SiaP wild type [3] = target: T4, Hi-SiaP wild type; set-up: method as in Johnston et al. (2008); conditions: taken for comparison; ref Johnston et al. (2008); cited from earlier work
Hi-SiaP N187Q mutant = target: T6, Hi-SiaP N187Q mutant (Haemophilus influenzae, UniProt P44542, N210Q); experiment: ITC binding of Neu5Ac to Hi-SiaP N187Q; conditions: 25°C
T6 construct: made in house
Description: as §1

Hi-SiaP T64R mutant = target: T7, Hi-SiaP T64R mutant (Haemophilus influenzae, UniProt P44542, T87R); experiment: ITC binding of Neu5Ac to Hi-SiaP T64R; conditions: 25°C
T7 construct: made in house
Description: as §1

V. cholerae = experiment: ELISA (3F11) of Neu5Ac incorporation onto surface LOS; format: cell-based, Vibrio cholerae
Description: V. cholerae was grown on sBHI agar plates containing 100 µM Neu5Ac and LB. Cells were harvested and resuspended in PBS (20 mM Na2HPO4, 150 mM NaCl pH 7.0) at an OD600 of 0.2. The wells of Costar 96-well EIA/RIA plates (Corning) were filled with 100 µl of the bacterial suspension and six wells were used for each experiment. The plates were dried at 40°C overnight. The plates were washed four times with buffer C (72 mM sodium acetate, 165 mM sodium chloride, 0.55% Tween 20) using an ELx50 Strip Washer (BioTek Instruments, Winooski, Vermont, USA). A neuraminidase digest was performed on three wells by adding 100 µl 0.01 U ml^−1 neuraminidase (Roche Diagnostics GmbH, Mannheim, Germany) diluted in neuraminidase buffer (50 mM sodium acetate, 154 mM NaCl, 9 mM CaCl2, 25 µg ml^−1 human serum albumin pH 5.6) and the other three wells were treated with just the buffer. The plate was incubated for 6 h at 37°C and the wells were then washed. The monoclonal antibody 3F11, diluted 1/200 in buffer C, was added to each well. The plates were incubated at 37°C overnight (approximately 18 h) followed by a wash. The secondary antibody, phosphatase-labelled goat anti-mouse IgM (Kirkegaard and Perry Laboratories, Gaithersburg, Maryland, USA), diluted 1/2000 in buffer C, was added. […] When a yellow colour had developed, the absorbance at 405 nm was read using a Microplate Autoreader EL311 (BioTek Instruments).

Hi-SiaP R127K mutant = target: T8, Hi-SiaP R127K mutant (Haemophilus influenzae, UniProt P44542, R150K); experiment: ITC binding of Neu5Ac to Hi-SiaP R127K; conditions: 25°C
T8 construct: made in house
Description: as §1

Hi-SiaP E186Q mutant = target: T9, Hi-SiaP E186Q mutant (Haemophilus influenzae, UniProt P44542, E209Q); experiment: ITC binding of Neu5Ac to Hi-SiaP E186Q
T9 construct: made in house
Description: as §1

[4] = ITC, 20 mM HEPES pH 8.0, 10 mM NaCl, 25°C
[5] = ITC, 20 mM HEPES pH 8.0, 10 mM NaCl, 25°C, read-out: K d

O=C(O)CC(O)C(=O)O (racemic) [DL-malic acid]
growth of V. cholerae in the presence of the compound (OD600) [1]: Little growth

C[C@@H](O)C(=O)O [D-lactic acid]
growth of V. cholerae in the presence of the compound (OD600) [1]: No growth

CC(=O)N[C@H]1[C@H]([C@H](O)[C@H](O)CO)OC(C(=O)O)=C[C@@H]1O [Neu5Ac2en, N-acetyl-2,3-dehydro-2-deoxyneuraminic acid]
interaction measured by ITC (Vc-SiaP): no measurable interaction
interaction measured by ITC (Fn-SiaP): no measurable interaction
interaction measured by ITC (Pm-SiaP; ITC, 25°C): no measurable interaction

CC(=O)NC1C(O)CC(O)(C(=O)O)OC1C(O)C(O)CO (stereo not drawn) [Neu5Ac]
H (change in enthalpy, ΔH) (Vc-SiaP): 7175 calmol^1
Kd (Vc-SiaP): 306 nM
T S (entropic component) (Vc-SiaP): 508.9 calmol^1
affinity for Neu5Ac in words (Hi-SiaP E67A mutant): micromolar affinity
H (change in enthalpy, ΔH) (Hi-SiaP E67A mutant; 25°C): 249.5 calmol^1
T S (entropic component) (Hi-SiaP E67A mutant; 25°C): 6168.6 calmol^1
H (change in enthalpy, ΔH) (Hi-SiaP H209A mutant): 13360 calmol^1
T S (entropic component) (Hi-SiaP H209A mutant): 4917 calmol^1
affinity for Neu5Ac in words (Hi-SiaP wild type [2]): nanomolar affinity
Kd (Hi-SiaP wild type [2]; 20 mM HEPES pH 8.0, 10 mM NaCl, 25°C): 16.6 nM
H (change in enthalpy, ΔH) (Hi-SiaP wild type [2]; 25°C): 17500 calmol^1
T S (entropic component) (Hi-SiaP wild type [2]; 25°C): 6883 calmol^1
H (change in enthalpy, ΔH) (Fn-SiaP): 9165 calmol^1
Kd (Fn-SiaP): 45.5 nM
T S (entropic component) (Fn-SiaP): 849.3 calmol^1
H (change in enthalpy, ΔH) (Pm-SiaP; [4]): 6560 calmol^1
T S (entropic component) (Pm-SiaP; [4]): 3948.2 calmol^1
Kd (Pm-SiaP; [5]): 19.7 nM
Kd (Pm-SiaP; fit box of the isotherm in Figure 4, single-site model, read-out: K (association constant) (converted)): 27 nM
affinity for Neu5Ac in words (Hi-SiaP T64K mutant): micromolar affinity
H (change in enthalpy, ΔH) (Hi-SiaP T64K mutant; 25°C): 8743 calmol^1
T S (entropic component) (Hi-SiaP T64K mutant; 25°C): 294.72 calmol^1
H (change in enthalpy, ΔH) (Hi-SiaP wild type [3]): 15300 calmol^1
Kd (Hi-SiaP wild type [3]): 28 nM
T S (entropic component) (Hi-SiaP wild type [3]): 5000 calmol^1
H (change in enthalpy, ΔH) (Hi-SiaP N187Q mutant): 7939 calmol^1
T S (entropic component) (Hi-SiaP N187Q mutant): 40.826 calmol^1
K d / binding to Neu5Ac (Hi-SiaP T64R mutant): No measurable binding
growth of V. cholerae in the presence of the compound (OD600) [1]: grows
3F11 binding of V. cholerae grown with Neu5Ac (ELISA) (V. cholerae; 100 µM Neu5Ac, binding did occur after neuraminidase: sialic acid incorporated into surface LOS): did not bind 3F11
difference in absorbance before and after adding neuraminidase (level of Neu5Ac incorporation) (V. cholerae; 3F11 ELISA, Figure S4, very little difference in LB media control): significant difference
K d / binding to Neu5Ac (Hi-SiaP R127K mutant): did not bind to Neu5Ac with measurable affinity; also recorded: No measurable binding
affinity for Neu5Ac in words (Hi-SiaP E186Q mutant): micromolar affinity
H (change in enthalpy, ΔH) (Hi-SiaP E186Q mutant; 25°C): 6827 calmol^1
T S (entropic component) (Hi-SiaP E186Q mutant; 25°C): 1016 calmol^1

O=C(CO)N[C@H]1[C@H]([C@H](O)[C@H](O)CO)OC(O)(C(=O)O)C[C@@H]1O (stereo partly drawn) [Neu5Gc]
H (change in enthalpy, ΔH) (Vc-SiaP): 5200 calmol^1
Kd (Vc-SiaP): 1090 nM
T S (entropic component) (Vc-SiaP): 1127.6 calmol^1
H (change in enthalpy, ΔH) (Fn-SiaP): 12074 calmol^1
Kd (Fn-SiaP): 45.7 nM
T S (entropic component) (Fn-SiaP): 2059.4 calmol^1
H (change in enthalpy, ΔH) (Pm-SiaP; [4]): 7469 calmol^1
T S (entropic component) (Pm-SiaP; [4]): 2777.3 calmol^1
Kd (Pm-SiaP; [5]): 30.7 nM
growth of V. cholerae in the presence of the compound (OD600) [1]: No growth; also recorded: cannot use Neu5Gc as a carbon source

O=C(CO)[C@@H](O)[C@H](O)[C@H](O)CO [fructose]
growth of V. cholerae in the presence of the compound (OD600) [1]: Little growth

O=C[C@H](O)[C@@H](O)[C@@H](O)[C@H](O)CO [galactose]
growth of V. cholerae in the presence of the compound (OD600) [1]: No growth

OCC(O)CO [glycerol]
growth of V. cholerae in the presence of the compound (OD600) [1]: No growth

O=C(O)CCC(=O)O [succinate]
growth of V. cholerae in the presence of the compound (OD600) [1]: Little growth

OC[C@H]1O[C@@](CO)(O[C@H]2O[C@H](CO)[C@@H](O)[C@H](O)[C@H]2O)[C@@H](O)[C@@H]1O [sucrose]
growth of V. cholerae in the presence of the compound (OD600) [1]: Little growth

B1: fetuin: a glycoprotein of foetal serum that contains different sugars and sialic acid (protein, UniProt P12763 19-359, looked up)
Alpha-2-HS-glycoprotein: IPLDPVAGYKEPACDDPDTEQAALAAVDYINKHLPRGYKHTLNQIDSVKVWPRRPTGEVYDIEIDTLETTCHVLDPTPLANCSVRQQTQHAVEGDCDIHVLKQDGQFSVLFTKCDSSPDSAEDVRKLCPDCPLLAPLNDSRVVHAVEVALATFNAESNGSYLQLVEISRAQFVPLPVSVSVEFAVAATDCIAKEVVDPTKCNLLAEKQYGFCKGSVIQKALGGEDVRVTCTLFQTQPVIPQPQPDGAEAEAPSAVPDAAGPTPSAAGPPVASVVVGPSVVAVPLPLHRAHYDLRHTFSGVASVESSSGEAFHVGKTPIVGQPSIPGGPVRLCPGRIRYFKI
growth of V. cholerae in the presence of the compound (OD600) [1]: grows

B2: asialofetunin: asialofetuin, used as a carbon source in the growth experiment (protein, UniProt P12763 19-359, looked up)
Alpha-2-HS-glycoprotein: B1 Alpha-2-HS-glycoprotein
modifications: desialylated
notes: asialofetuin, used as a carbon source in the growth experiment
growth of V. cholerae in the presence of the compound (OD600) [1]: No growth
